According to patent publication US20020051799A1, “Glucosylated hydroxystilbene compounds for treating skin conditions” (priority 2000, published 2002):

Experiments:
tyrosinase = experiment: Spectrophotometric tyrosinase assay (255 nm); type: biochemical
Method: A glucosylated resveratrol (4′,5-dihydroxystilbene-3-O-beta-D-glucoside) (APIN Chemicals N17555p, 29 D Milton Park, Abingdon, Oxon, United Kingdom) was incubated in the presence of an extract of stratum corneum or of a homogenate of hair follicles that had been removed by plucking. Under precise experimental conditions, the affinity of the resveratrol for tyrosinase was higher than for glucosylated resveratrol. This property was advantageously employed to measure the resveratrol liberated in the presence of tyrinosase, determined at 255 nm. This method was adapted from the method described by A. A. Calderon: “A Spectrophotometric Assay for Quantitative Analysis of the Oxidation of 4-hydroxystilbene by Peroxidase-H2O2 Systems: J. of Biochem. and Biophys. (1990) Methods 20: 171-180.
A 200 μl aliquot was removed and 10 μl of tyronisase was added.
Two independent measurements were carried out by determining the optical density at 255 nm over 10 minutes and calculating the slope of the graph (60 to 300 seconds).
Under the same conditions, a calibration curve was produced using resveratrol (1; 2.5; 5; 7.5 and 10 μl) in a volume adjusted to […].

[1] = glucosylated form compared with the non glucosylated form; cited from earlier work

Oc1ccc(C=Cc2cc(O)cc(O)c2)cc1 [resveratrol, 3,4′,5-trihydroxystilbene]
affinity for tyrosinase (tyrosinase; compared with glucosylated resveratrol, under precise experimental conditions): higher | concentrations at which resveratrol action was demonstrated (tyrosinase; in vitro tests): less than 10 μm

OC[C@H]1O[C@@H](Oc2cc(O)cc(/C=C/c3ccc(O)cc3)c2)[C@H](O)[C@@H](O)[C@@H]1O [glucosylated resveratrol, 4′,5-dihydroxystilbene-3-O-beta-D-glucoside]
antioxidant activity [1]: far inferior
